For experiment [1], the target named is NTR1 (Homo sapiens (Human), UniProt P30989). To be noted: cited from earlier work.
Experiment [2] concerns the target human NTSR-1 (Homo sapiens (Human), UniProt P30989). The experiment can be described thus: radioligand competitive binding assay using ^177Lu labeled C-1 as reference radioligand. The following applies: for IC50: Nonlin fit, single assay, HT-29 cells. The gist of the method: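 HT-29 cells expressing human NTSR-1 incubated with ¹⁷⁷Lu-C-1 (0.55 μCi/well) and test compound in RPMI-1640 + 0.25% BSA, 1 h at 37 °C (n=3). Unbound label removed by filtration, cell-bound radioactivity gamma-counted; IC50 from nonlinear regression of displacement.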

Like-named read-outs stand apart in the source and are kept apart here.

human NTSR-1, sequence (P30989 whole entry): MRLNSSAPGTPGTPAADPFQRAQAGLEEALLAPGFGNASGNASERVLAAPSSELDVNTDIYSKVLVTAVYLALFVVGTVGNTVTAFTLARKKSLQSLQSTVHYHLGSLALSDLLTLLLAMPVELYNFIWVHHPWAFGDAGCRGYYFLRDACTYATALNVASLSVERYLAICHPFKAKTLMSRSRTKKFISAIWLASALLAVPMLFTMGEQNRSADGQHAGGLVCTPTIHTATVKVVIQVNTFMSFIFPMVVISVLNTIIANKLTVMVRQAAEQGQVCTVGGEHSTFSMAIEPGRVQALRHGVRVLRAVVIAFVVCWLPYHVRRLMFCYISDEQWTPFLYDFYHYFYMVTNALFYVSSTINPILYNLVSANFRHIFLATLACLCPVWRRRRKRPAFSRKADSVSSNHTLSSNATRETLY
NTR1, sequence (P30989 whole entry, species assumed): as the sequence (P30989 whole entry) above

On to `COc1cccc(OC)c1-c1cc(C(=O)NC2(C(=O)O)C3CC4CC(C3)CC2C4)nn1-c1ccc(C(=O)N(C)CCCN(C)C)cc1C(C)C` (stereo not shown) [Compound C-3, reference compound], for which the “binding affinity to NTR1 as an antagonist” value in experiment [1] is “high binding affinity”. The “Relative Binding Affinity” value in experiment [2] (Mean IC50 of C-1/Mean IC50 of the test compound) worked out at 13.7. In addition, the IC50 in experiment [2] (read-out: IC50 (nM) Mean) and in experiment [2] (read-out: LogIC50 Mean (converted)) was 2.05 nM each time.

The values are drawn from patent US20240287046A1, “COMPOUNDS AND RADIOLIGANDS FOR TARGETING NEUROTENSIN RECEPTOR AND USES THEREOF” (Full-Life Technologies HK Limited, priority 2022, published 2024).
